In ChEMBL document CHEMBL4406798, “A novel finding of nalbuphine-6-glucuronide, an active opiate metabolite, possessing potent antinociceptive effects: Synthesis and biological evaluation” (2019):

Legend:
[1] = test system: Rattus norvegicus; experiment: Antinociceptive activity in Sprague-Dawley rat model of paw mechanical allodynia assessed as maximum possible analgesia at 50 mg/kg, ip by Randall-Selitto test relative to control; format: functional
[2] = test system: Rattus norvegicus; experiment: Antinociceptive activity in Sprague-Dawley rat model of thermal-induced nociception assessed as maximum possible analgesia at 50 mg/kg, ip measured over 2.5 hrs by cold-ethanol tail-flick test relative to control; format: functional
[3] = test system: Rattus norvegicus; experiment: Antinociceptive activity in Sprague-Dawley rat model of thermal-induced nociception assessed as duration above 50% maximum possible analgesia at 1 mg/kg administered as intra-cisternal injection measured over 2.5 hrs by cold-ethanol tail-flick test; format: functional
[4] = test system: Rattus norvegicus; experiment: Antinociceptive activity in Sprague-Dawley rat model of paw mechanical allodynia assessed as reduction in paw pressure by measuring AUC (0 to t) of paw pressure test at 50 mg/kg, ip by Randall-Selitto test; format: functional, organism-based
[5] = test system: Rattus norvegicus; experiment: Antinociceptive activity in Sprague-Dawley rat model of paw mechanical allodynia assessed as maximum possible analgesia at 1 mg/kg administered as intra-cisternal injection by Randall-Selitto test relative to control; format: functional
[6] = test system: Rattus norvegicus; experiment: Antinociceptive activity in Sprague-Dawley rat model of paw mechanical allodynia assessed as reduction in paw pressure by measuring AUC (0 to t) of paw pressure test at 1 mg/kg administered as intra-cisternal injection by Randall-Selitto test; format: functional, organism-based
[7] = test system: Rattus norvegicus; experiment: Antinociceptive activity in Sprague-Dawley rat model of thermal-induced nociception assessed as reduction in tail-flick response by measuring AUC (0 to t) of tail flick test at 50 mg/kg, ip measured over 2.5 hrs by cold-ethanol tail-flick test; format: functional, organism-based; design: time < 2.5 hr, dose 50 mg/kg
[8] = test system: Rattus norvegicus; experiment: Antinociceptive activity in Sprague-Dawley rat model of thermal-induced nociception assessed as reduction in tail-flick response by measuring AUC (0 to t) of tail flick test at 1 mg/kg administered as intra-cisternal injection measured over 2.5 hrs by cold-ethanol tail-flick test; format: functional, organism-based; design: dose 1 mg/kg, time < 2.5 hr
[9] = test system: Rattus norvegicus; experiment: Antinociceptive activity in Sprague-Dawley rat model of thermal-induced nociception assessed as maximum possible analgesia at 1 mg/kg administered as intra-cisternal injection measured over 2.5 hrs by cold-ethanol tail-flick test relative to control; format: functional
[10] = test system: Rattus norvegicus; experiment: Antinociceptive activity in Sprague-Dawley rat model of paw mechanical allodynia assessed as duration above 50% maximum possible analgesia at 50 mg/kg, ip by Randall-Selitto test; format: functional
[11] = test system: Rattus norvegicus; experiment: Antinociceptive activity in Sprague-Dawley rat model of paw mechanical allodynia assessed as duration above 50% maximum possible analgesia at 1 mg/kg administered as intra-cisternal injection by Randall-Selitto test; format: functional
[12] = test system: Rattus norvegicus; experiment: Antinociceptive activity in Sprague-Dawley rat model of thermal-induced nociception assessed as duration above 50% maximum possible analgesia at 50 mg/kg, ip measured over 2.5 hrs by cold-ethanol tail-flick test; format: functional
[13] = species on record: Rattus norvegicus; experiment: Ratio of AUC for test compound to AUC for nalbuphine for antinociceptive activity in Sprague-Dawley rat model by cold-ethanol tail-flick test; format: functional
[14] = species on record: Rattus norvegicus; experiment: Ratio of AUC for test compound to AUC for nalbuphine for antinociceptive activity in Sprague-Dawley rat model by Randall-Selitto test; format: functional

Structure (SMILES) | Activity [1] [%] | Activity [2] [%] | Time [3] [h] | AUC [4] [g·h] | Activity [5] [%] | AUC [6] [g·h] | AUC [7] [hr.sec] | AUC [8] [hr.sec] | Activity [9] [%] | Time [10] [h] | Time [11] [h] | Time [12] [h] | Ratio [13] | Ratio [14]
O=C(O)[C@H]1O[C@@H](Oc2ccc3c4c2O[C@H]2[C@@H](O)CC[C@@]5(O)[C@@H](C3)N(CC3CCC3)CC[C@]425)[C@H](O)[C@@H](O)[C@@H]1O | 17.7 | 19.3 | 1.36 | 73.4 | 7.3 | 23.5 | 5.8 | 5.4 | 22.3 |  |  |  |  | 
Oc1ccc2c3c1O[C@H]1[C@@H](O)CC[C@@]4(O)[C@@H](C2)N(CC2CCC2)CC[C@]314 [NALBUPHINE] | 37.9 | 43.6 | 0.07 | 169 | 48 | 176 | 16.9 | 11.3 | 38.4 | 0.1 | 0.13 | 0.15 |  | 
O=C(O)[C@H]1O[C@@H](O[C@H]2CC[C@@]3(O)[C@H]4Cc5ccc(O)c6c5[C@@]3(CCN4CC3CCC3)[C@H]2O6)[C@H](O)[C@@H](O)[C@@H]1O | 29.6 | 22.7 |  | 158 | 95.1 | 510 | 5.4 | 40.3 | 96.5 |  | 91 |  | 3.5 | 2.8
